These results are taken from PubChem BioAssay (NCI).

Among the test systems are EKVX NSCLC; HCC-2998 colon; K-562 leukemia; LOX IMVI melanoma; NCI-H522 lung; SF-295 CNS; SK-OV-3 ovarian; CAKI-1 renal; SK-MEL-5 melanoma; HL-60(TB) leukemia.
Assay in all cases: growth of human tumour cells (NCI), 48 h

Molecules are shown by their SMILES. Where “and” joins values, the source holds several entries; their conditions need not be identical. Equal entries are not always repeated.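 Interpolation was linear, between the two tested concentrations surrounding the appropriate level; five concentrations were tested over 48 hours in 96-well plates. Here, GI50 denotes the concentration required for 50% inhibition of growth. The concentration for full growth arrest is given as TGI.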

Turning to `OCC(O)C(OC1OC(CO)C(O)C(O)C1O)c1nn(-c2ccccc2)c2nc3cc(Cl)c(Cl)cc3cc12` (centres undefined), the TGI in the assay with EKVX NSCLC, with HCC-2998 colon, in the assay with K-562 leukemia, in the assay with LOX IMVI melanoma, with NCI-H522 lung and in the assay with SF-295 CNS was over 100 µM throughout. The TGI in the assay on SK-OV-3 ovarian is over 100 µM.

`N#Cc1c(N)nc(N2CCOCC2)c(C#N)c1-c1ccc(Cl)cc1`: the GI50 in the assay on CAKI-1 renal is 26 µM; in the assay on EKVX NSCLC, 22.5 µM; with HCC-2998 colon it was 21.7 µM; with K-562 leukemia it was over 100 µM; in the assay on LOX IMVI melanoma, 29.2 µM; in the assay on SF-295 CNS, 44.8 µM. For the same compound, the GI50 was 27.4 µM in the assay with SK-MEL-5 melanoma and 47.2 µM with SK-OV-3 ovarian. For the same compound, the TGI is 97.1 µM in the assay with CAKI-1 renal; over 100 µM with EKVX NSCLC; 99.2 µM in the assay with HCC-2998 colon; over 100 µM in the assay with K-562 leukemia; over 100 µM with LOX IMVI melanoma; over 100 µM with SF-295 CNS. Moreover, the TGI with SK-MEL-5 melanoma and in the assay with SK-OV-3 ovarian was over 100 µM each time.

`Cc1ccc(S(=O)(=O)NNC(=O)c2sc(-c3nc(C)c(C(=O)NNS(=O)(=O)c4ccc(C)cc4)s3)nc2C)cc1`: the TGI with CAKI-1 renal, in the assay on EKVX NSCLC, in the assay with HCC-2998 colon, with HL-60(TB) leukemia, in the assay on K-562 leukemia and in the assay with LOX IMVI melanoma was over 100 µM each time. The TGI with SF-295 CNS, in the assay with SK-MEL-5 melanoma and in the assay with SK-OV-3 ovarian was over 100 µM in each case.

Regarding `COc1ccc(-c2nnc(SCC(=O)Nc3ccc(/C(C)=N\O)cc3)n2-c2ccccc2)cc1OC`, the GI50 with CAKI-1 renal is over 100 µM; with HCC-2998 colon, over 100 µM; with HL-60(TB) leukemia it was over 100 µM; in the assay on K-562 leukemia it was over 100 µM; with LOX IMVI melanoma, over 100 µM; in the assay on NCI-H522 lung it was 21.4 µM. In addition, the GI50 with SF-295 CNS is 3.39 µM; with SK-MEL-5 melanoma, over 100 µM; in the assay with SK-OV-3 ovarian, 2.73 µM. Moreover, the TGI with CAKI-1 renal, in the assay on HCC-2998 colon, in the assay with HL-60(TB) leukemia, with K-562 leukemia, in the assay with LOX IMVI melanoma and in the assay on NCI-H522 lung was over 100 µM throughout. Besides, the TGI is 37.7 µM with SF-295 CNS, over 100 µM with SK-MEL-5 melanoma and 13.7 µM in the assay on SK-OV-3 ovarian.

Regarding `NNC(=O)CCC(=O)Nc1cc(Cl)c(Cl)cc1Cl`, the TGI in the assay on CAKI-1 renal, in the assay on HCC-2998 colon, in the assay on HL-60(TB) leukemia, in the assay with K-562 leukemia, with LOX IMVI melanoma and in the assay with NCI-H522 lung was over 100 µM in each case. The TGI in the assay on SF-295 CNS, with SK-MEL-5 melanoma and in the assay on SK-OV-3 ovarian was over 100 µM each time.

Take `COc1ccc(C2=NN(C(=O)COc3ccc(Cl)cc3)C(O)(c3ccc(Cl)cc3)C2)cc1` (centres undefined): the TGI in the assay on CAKI-1 renal, in the assay on HCC-2998 colon, with HL-60(TB) leukemia, in the assay on K-562 leukemia, with LOX IMVI melanoma and in the assay with NCI-H522 lung was over 100 µM each time. Besides, the TGI with SF-295 CNS and with SK-OV-3 ovarian was over 100 µM in each case.

Take `COc1cc2c3c(n(CCCNCC(OC)OC)c(=O)c2cc1OC)-c1cc2c(cc1C3=O)OCO2`: the GI50 with CAKI-1 renal was 0.219 µM; in the assay with EKVX NSCLC, 15.7 µM; in the assay with HL-60(TB) leukemia, 2.6 µM; in the assay on K-562 leukemia, 0.91 µM; with LOX IMVI melanoma, 1.46 µM; with NCI-H522 lung, 18.2 µM. Moreover, the GI50 was 0.303 µM in the assay on SF-295 CNS and 22.8 µM with SK-OV-3 ovarian. The TGI in the assay on CAKI-1 renal was 17.2 µM; in the assay on EKVX NSCLC, over 57.3 µM; in the assay on HL-60(TB) leukemia, over 28.3 µM; in the assay on K-562 leukemia it was over 46.8 µM; in the assay on LOX IMVI melanoma, over 29.8 µM; in the assay with NCI-H522 lung it was over 100 µM. The TGI in the assay on SF-295 CNS is 49.4 µM; in the assay with SK-OV-3 ovarian it was over 100 µM.

Take `[C-]#[O+].[C-]#[O+].[C-]#[O+].[C-]#[O+].[Ir].[Ir].[O-]c1ccc2ccccc2c1C=Nc1ccc(N=Cc2c([O-])ccc3ccccc23)cc1`: the GI50 in the assay with CAKI-1 renal is over 100 µM; in the assay with EKVX NSCLC, over 100 µM; in the assay on HCC-2998 colon, over 100 µM; with HL-60(TB) leukemia, 75.5 µM; with K-562 leukemia, 40.1 µM; in the assay on LOX IMVI melanoma, over 100 µM. Further, the GI50 in the assay on SF-295 CNS, in the assay on SK-MEL-5 melanoma and with SK-OV-3 ovarian was over 100 µM in each case. Also, the TGI with CAKI-1 renal, in the assay with EKVX NSCLC, with HCC-2998 colon, in the assay on HL-60(TB) leukemia, in the assay with K-562 leukemia and with LOX IMVI melanoma was over 100 µM in each case. Besides, the TGI in the assay with SF-295 CNS, with SK-MEL-5 melanoma and with SK-OV-3 ovarian was over 100 µM in each case.

For the compound `O=C(CCCCCCSc1nc(-c2ccccc2)cc(-c2ccccc2)n1)NO`, the GI50 was 1.56 µM in the assay on CAKI-1 renal; 3.96 µM with EKVX NSCLC; 3.07 µM in the assay on HCC-2998 colon; 1.58 µM in the assay with K-562 leukemia; 1.86 µM in the assay on LOX IMVI melanoma; 1.07 µM in the assay with NCI-H522 lung. Besides, the GI50 in the assay on SF-295 CNS was 2.18 µM; with SK-MEL-5 melanoma, 1.46 µM; in the assay on SK-OV-3 ovarian, 2.42 µM. Also, the TGI amounted to 6.39 µM in the assay on CAKI-1 renal; 17.2 µM in the assay with EKVX NSCLC; 11.9 µM in the assay with HCC-2998 colon; 12 µM in the assay on K-562 leukemia; 3.84 µM with LOX IMVI melanoma; 7.72 µM in the assay with NCI-H522 lung. The TGI in the assay on SF-295 CNS came to 5.78 µM; with SK-MEL-5 melanoma, 3.48 µM; in the assay on SK-OV-3 ovarian, 8.84 µM.

Consider `O=C(O)CCSCCCN1C(=O)c2ccccc2C1=O`, for which the TGI with EKVX NSCLC, in the assay with HCC-2998 colon, in the assay on K-562 leukemia, with SF-295 CNS, in the assay on SK-MEL-5 melanoma and with SK-OV-3 ovarian was over 100 µM throughout.

Turning to `COC(C(=O)C(O)C(C)O)C1Cc2cc3cc(OC4CC(OC(C)=O)C(OC5CC(O)C(OC)C(C)O5)C(C)O4)cc(O)c3c(O)c2C(=O)C1OC1CC(OC2CC(OC3CC(C)(O)C(OC(=O)C(C)C)C(C)O3)C(O)C(C)O2)C(O)C(C)O1` (centres undefined), the GI50 in the assay with EKVX NSCLC is 0.0723 µM; in the assay with NCI-H522 lung it was 0.000196 µM; with SK-MEL-5 melanoma it was 0.0094 µM and 0.00174 µM; in the assay with SK-OV-3 ovarian it was 0.0217 µM and 0.0423 µM.
